# ChEMBL document CHEMBL1201862, “PubChem BioAssay data set” (2004)
# The source made the active and inactive calls.
# Key:
# [1] = target: Melanin-concentrating hormone receptor 1 (Homo sapiens, UniProt Q99705); test: Fluorescence-based counterscreen for antagonists of the G-protein coupled receptor 7 (GPR7): cell-based high throughput dose response assay to identify antagonists of the melanin-concentrating hormone receptor 1 (MCHR1).; assay type: functional
# [2] = target: T1, Neuropeptides B/W receptor type 1 (Homo sapiens, UniProt P48145); test: Fluorescence-based dose response cell-based high throughput screening assay to identify antagonists of the G-protein coupled receptor 7 (GPR7). [Related pubchem assays: 1952 (Screening assay (GPR7 antagonists).), 1880 (Summary AID.)]; assay type: functional
# T1 sequence (P48145 whole entry): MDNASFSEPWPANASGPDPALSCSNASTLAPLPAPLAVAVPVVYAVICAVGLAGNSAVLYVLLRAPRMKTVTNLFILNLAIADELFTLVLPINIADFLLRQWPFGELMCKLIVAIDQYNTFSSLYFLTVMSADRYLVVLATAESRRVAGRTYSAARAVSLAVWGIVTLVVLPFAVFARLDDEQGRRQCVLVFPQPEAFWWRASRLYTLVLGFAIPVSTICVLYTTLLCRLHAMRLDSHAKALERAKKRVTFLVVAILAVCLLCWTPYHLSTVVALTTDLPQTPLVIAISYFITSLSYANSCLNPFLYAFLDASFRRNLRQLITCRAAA
# [3] = target: T2, Microphthalmia-associated transcription factor (Homo sapiens, UniProt O75030); test: reducers of TRPM1 reporter luminescence, concentration series – cell-based, SK-MEL-5, cherry-picked, set 3, MITF inhibitor project, dose response (AID 493073); assay type: functional;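 further: SK-MEL-5 melanoma cells with luciferase driven by the MITF target TRPM1 promoter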
# T2 sequence (O75030 whole entry): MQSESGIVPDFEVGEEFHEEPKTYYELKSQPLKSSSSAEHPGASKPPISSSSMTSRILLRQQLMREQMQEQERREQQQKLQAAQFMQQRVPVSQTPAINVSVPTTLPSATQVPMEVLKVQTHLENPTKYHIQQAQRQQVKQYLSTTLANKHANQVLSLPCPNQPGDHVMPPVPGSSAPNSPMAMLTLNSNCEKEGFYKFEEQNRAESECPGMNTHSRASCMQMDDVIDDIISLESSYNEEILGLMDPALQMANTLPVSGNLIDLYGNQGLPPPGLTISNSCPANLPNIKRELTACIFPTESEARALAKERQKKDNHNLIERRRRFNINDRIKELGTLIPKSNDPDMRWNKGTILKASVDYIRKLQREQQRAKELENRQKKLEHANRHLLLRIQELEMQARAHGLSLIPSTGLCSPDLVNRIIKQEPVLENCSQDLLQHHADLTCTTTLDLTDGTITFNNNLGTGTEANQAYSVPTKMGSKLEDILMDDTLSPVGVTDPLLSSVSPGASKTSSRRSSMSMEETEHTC
# Cytochrome P450 2C19 = Cytochrome P450 2C19 (Homo sapiens, UniProt P33261); test: Cytochrome panel assay with activity outcomes. Panel member name: p450-cyp2c19 Compounds with AC50 equal or less than 10 uM are considered active; assay type: functional; details: read-out: AC50
# Cytochrome P450 2D6 = Cytochrome P450 2D6 (Homo sapiens, UniProt P10635);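 further: CYP2D6 member of a cytochrome P450 panel assay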
# Streptococcus = test: GAS UMAA2166 growth inhibition – luminescence, BacTiterGlo, counter-screen for streptokinase expression inhibitor project, dose response (AID 1915); assay type: functional, organism-based;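 further: potency for reduction of bacterial viability or growth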
# [4] = target: T3, Zinc finger protein mex-5 (Caenorhabditis elegans, UniProt Q9XUB2); test: potency of MEX-5 RNA-binding blockers – biochemical, C. elegans, fluorescence polarization, dose response (AID 1960)
# T3 sequence (Q9XUB2 whole entry): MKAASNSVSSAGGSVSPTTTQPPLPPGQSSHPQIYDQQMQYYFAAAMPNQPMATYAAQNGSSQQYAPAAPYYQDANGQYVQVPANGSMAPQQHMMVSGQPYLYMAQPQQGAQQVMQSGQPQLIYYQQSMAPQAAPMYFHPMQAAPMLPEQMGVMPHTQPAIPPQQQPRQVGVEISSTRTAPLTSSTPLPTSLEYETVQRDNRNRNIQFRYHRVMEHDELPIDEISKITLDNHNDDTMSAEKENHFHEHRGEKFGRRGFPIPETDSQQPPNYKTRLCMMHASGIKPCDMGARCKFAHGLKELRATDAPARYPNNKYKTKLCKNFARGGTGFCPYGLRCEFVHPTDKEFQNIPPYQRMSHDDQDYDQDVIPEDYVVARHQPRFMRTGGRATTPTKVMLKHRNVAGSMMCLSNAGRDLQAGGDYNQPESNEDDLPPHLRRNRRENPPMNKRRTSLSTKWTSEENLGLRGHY
# [5] = system: Streptococcus sp. 'group A'; test: Streptococcus pyogenes SK(-)GAS viability under kanamycin – luminescence, BacTiterGlo, confirmation, counter-screen for streptokinase expression inhibitor project, dose response (AID 1900); assay type: functional, organism-based
# Aminopeptidase N = target: T4, Aminopeptidase N (Plasmodium falciparum FcB1/Columbia, UniProt O96935); test: malaria alanyl aminopeptidase activity blockers – biochemical, fluorogenic H-Leu-NHMec substrate, 1536-well (AID 1445); parameters: species or system Plasmodium falciparum 3D7, 3D7
# T4 sequence (O96935 whole entry): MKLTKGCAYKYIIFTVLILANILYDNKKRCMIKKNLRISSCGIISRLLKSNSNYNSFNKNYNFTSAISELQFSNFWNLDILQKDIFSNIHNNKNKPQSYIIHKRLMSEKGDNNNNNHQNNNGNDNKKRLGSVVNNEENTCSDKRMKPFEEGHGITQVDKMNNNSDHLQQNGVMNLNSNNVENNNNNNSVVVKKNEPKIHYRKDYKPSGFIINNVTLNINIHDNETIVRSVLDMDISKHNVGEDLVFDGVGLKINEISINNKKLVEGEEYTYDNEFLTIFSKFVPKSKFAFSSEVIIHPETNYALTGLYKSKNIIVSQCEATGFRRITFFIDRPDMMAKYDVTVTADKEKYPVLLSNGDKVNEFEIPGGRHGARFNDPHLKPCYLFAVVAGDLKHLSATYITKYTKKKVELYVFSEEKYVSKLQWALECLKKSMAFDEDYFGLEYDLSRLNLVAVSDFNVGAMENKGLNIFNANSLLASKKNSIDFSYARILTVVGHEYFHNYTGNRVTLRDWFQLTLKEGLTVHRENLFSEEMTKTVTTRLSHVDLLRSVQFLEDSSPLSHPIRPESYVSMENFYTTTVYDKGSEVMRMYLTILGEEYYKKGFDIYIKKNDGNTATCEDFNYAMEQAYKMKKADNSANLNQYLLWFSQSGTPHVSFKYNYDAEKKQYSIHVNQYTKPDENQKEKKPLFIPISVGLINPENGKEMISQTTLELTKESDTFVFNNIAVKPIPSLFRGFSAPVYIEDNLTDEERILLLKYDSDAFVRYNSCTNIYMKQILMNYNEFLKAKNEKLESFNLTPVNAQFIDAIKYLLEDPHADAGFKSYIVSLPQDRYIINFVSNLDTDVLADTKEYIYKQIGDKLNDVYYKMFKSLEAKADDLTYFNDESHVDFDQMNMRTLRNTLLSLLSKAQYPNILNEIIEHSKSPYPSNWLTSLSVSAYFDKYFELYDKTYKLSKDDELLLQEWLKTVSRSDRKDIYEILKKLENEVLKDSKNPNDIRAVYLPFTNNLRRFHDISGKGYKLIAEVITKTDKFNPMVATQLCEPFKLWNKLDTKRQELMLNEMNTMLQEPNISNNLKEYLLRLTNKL
# Nonstructural protein 1 = Nonstructural protein 1 (Influenza A virus, UniProt Q194T2); assay type: functional, Influenza A virus (A/California/07/2009(H1N1))
# Leucine aminopeptidase = target: T5, Leucine aminopeptidase (Plasmodium falciparum 3D7, UniProt Q8IL11); test: P. falciparum M17LAP inhibitors, primary screen, biochemical, fluorogenic H-Leu-NHMec substrate, 1536-well (AID 1619); assay type: functional
# T5 sequence (Q8IL11 whole entry): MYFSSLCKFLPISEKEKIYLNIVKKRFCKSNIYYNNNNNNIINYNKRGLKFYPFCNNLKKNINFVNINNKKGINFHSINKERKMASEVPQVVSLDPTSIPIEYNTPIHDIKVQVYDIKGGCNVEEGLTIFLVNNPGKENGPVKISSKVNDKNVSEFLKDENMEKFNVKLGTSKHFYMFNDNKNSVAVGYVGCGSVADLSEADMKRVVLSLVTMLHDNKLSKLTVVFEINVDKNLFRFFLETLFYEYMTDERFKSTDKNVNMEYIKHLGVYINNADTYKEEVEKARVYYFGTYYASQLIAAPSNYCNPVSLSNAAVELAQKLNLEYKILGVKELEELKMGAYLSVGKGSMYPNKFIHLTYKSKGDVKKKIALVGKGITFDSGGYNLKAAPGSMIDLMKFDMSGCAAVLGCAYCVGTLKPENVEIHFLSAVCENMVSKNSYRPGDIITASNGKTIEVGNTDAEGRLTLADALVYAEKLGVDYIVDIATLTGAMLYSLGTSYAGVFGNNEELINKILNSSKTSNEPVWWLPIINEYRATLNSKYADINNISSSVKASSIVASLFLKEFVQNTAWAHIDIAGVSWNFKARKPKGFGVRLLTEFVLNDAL
# [6] = target: T6, RNA-binding protein pos-1 (Caenorhabditis elegans, UniProt G5EF15); test: disruptors of C. elegans POS-1 RNA interaction – biochemical, fluorescence polarization, dose response (AID 1964);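 further: purified POS-1 fused to maltose binding protein made in E. coli; potency of compounds blocking POS-1 binding to fluorescent RNA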
# T6 sequence (G5EF15 whole entry): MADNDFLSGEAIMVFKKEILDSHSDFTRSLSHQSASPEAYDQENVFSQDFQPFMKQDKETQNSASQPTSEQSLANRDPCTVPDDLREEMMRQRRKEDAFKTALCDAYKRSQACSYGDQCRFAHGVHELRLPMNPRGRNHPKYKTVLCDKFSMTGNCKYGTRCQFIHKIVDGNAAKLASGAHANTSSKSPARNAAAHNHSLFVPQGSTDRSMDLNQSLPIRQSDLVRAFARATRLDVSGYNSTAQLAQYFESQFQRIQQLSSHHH
# Albumin = Albumin (Bos taurus, UniProt P02769); test: Counterscreen for inhibitors of T-cell receptor (TCR)-CD3 interaction: Fluorescence-based biochemical high throughput dose response assay to identify inhibitors of T-cell receptor (TCR)-CD3 interaction using a TAMRA-labeled BSA probe.; assay type: functional
# SUMO-activating enzyme [7] = target: T7, SUMO-activating enzyme (Homo sapiens, UniProt Q9UBT2); test: blockers of SAE1/SAE2–UBC9 SUMO transfer – biochemical, HTRF, uHTS, primary screen (AID 2006); assay type: protein-complex assay
# SUMO-activating enzyme [8] = target: T7, SUMO-activating enzyme; test: blockers of UBC9-mediated SUMO conjugation – biochemical, AlphaScreen, SUMOylation inhibitor project, confirmation (AID 2018); assay type: functional
# [9] = target: T8, Ubiquitin-conjugating enzyme E2 N (Homo sapiens, UniProt P61088); assay type: functional
# T8 sequence (P61088 whole entry): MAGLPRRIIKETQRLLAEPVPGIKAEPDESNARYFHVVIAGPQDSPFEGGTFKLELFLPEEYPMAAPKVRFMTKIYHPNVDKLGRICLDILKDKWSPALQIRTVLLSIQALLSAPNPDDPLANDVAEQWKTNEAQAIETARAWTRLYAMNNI
# Bcl-2-related protein A1 = target: T9, Bcl-2-related protein A1 (Mus musculus, UniProt Q07440); assay type: functional;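 further: confirmatory dose–response counterscreen on Bfl-1, used to check hits from a UBC13 polyubiquitin inhibitor campaign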
# T9 sequence (Q07440 whole entry): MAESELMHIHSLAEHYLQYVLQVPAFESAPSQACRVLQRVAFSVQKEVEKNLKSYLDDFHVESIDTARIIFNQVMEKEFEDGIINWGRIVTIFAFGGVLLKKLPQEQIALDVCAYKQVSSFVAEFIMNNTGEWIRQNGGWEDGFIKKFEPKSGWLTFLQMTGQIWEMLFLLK
# [10] = target: T8, Ubiquitin-conjugating enzyme E2 N; assay type: functional; remark: listed apart in the source
# [11] = blockers of HIV-1 envelope-mediated cell-cell fusion – cherry-pick, dose response (AID 652057); assay type: functional, cell-based
# [12] = off-target signal loss in HeLa-CEM21 co-culture – HeLa F-luc CTL cells, cherry-picked, counter-screen for HIV-1 Env fusion inhibitor project, dose response (AID 652040); assay type: functional, cell-based;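 further: potency for signal decrease marking cytotoxic or nonspecific inhibition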
# [13] = HIV-1 AD8 envelope cell-cell fusion blockers – cherry-pick, dose response (AID 652062); assay type: functional, cell-based;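 further: luciferase signal from cell-cell fusion driven by HIV-1 clade B AD8 Env; potency is for inhibitors of fusion seen as a drop in luminescence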
# [14] = blockers of HIV-1 ZM109 envelope-driven cell-cell fusion – HeLa effector, CEM target cells, luciferase, cherry-pick, dose response (AID 652058); assay type: functional, cell-based;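 further: luciferase signal from HIV-1 Env mediated cell-cell fusion of effector and target cells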
# Vero = test: cells; assay type: functional; details: Chlorocebus sabaeus
# Chain of Melanin-concentrating hormone receptor 1 (Q99705 whole entry): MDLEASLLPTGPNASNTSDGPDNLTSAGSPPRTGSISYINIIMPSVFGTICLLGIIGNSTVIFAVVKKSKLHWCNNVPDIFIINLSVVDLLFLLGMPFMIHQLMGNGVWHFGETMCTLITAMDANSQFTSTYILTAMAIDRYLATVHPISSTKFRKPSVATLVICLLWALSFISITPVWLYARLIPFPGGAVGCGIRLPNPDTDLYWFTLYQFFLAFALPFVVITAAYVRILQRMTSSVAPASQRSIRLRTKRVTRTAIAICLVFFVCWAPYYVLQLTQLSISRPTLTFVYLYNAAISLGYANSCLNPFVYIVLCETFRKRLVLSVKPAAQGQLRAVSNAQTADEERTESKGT
# T7 sequence (Q9UBE0 whole entry): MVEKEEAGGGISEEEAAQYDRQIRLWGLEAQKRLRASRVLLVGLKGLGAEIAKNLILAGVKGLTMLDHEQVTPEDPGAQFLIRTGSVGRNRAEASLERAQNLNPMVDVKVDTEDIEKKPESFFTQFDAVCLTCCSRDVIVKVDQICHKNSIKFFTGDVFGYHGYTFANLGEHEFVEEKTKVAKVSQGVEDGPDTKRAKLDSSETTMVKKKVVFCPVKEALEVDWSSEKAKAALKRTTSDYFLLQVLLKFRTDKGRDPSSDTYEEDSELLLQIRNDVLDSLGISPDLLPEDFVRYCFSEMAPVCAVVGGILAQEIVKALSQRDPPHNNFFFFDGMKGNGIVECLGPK
# T7 sequence (Q9UBT2 whole entry): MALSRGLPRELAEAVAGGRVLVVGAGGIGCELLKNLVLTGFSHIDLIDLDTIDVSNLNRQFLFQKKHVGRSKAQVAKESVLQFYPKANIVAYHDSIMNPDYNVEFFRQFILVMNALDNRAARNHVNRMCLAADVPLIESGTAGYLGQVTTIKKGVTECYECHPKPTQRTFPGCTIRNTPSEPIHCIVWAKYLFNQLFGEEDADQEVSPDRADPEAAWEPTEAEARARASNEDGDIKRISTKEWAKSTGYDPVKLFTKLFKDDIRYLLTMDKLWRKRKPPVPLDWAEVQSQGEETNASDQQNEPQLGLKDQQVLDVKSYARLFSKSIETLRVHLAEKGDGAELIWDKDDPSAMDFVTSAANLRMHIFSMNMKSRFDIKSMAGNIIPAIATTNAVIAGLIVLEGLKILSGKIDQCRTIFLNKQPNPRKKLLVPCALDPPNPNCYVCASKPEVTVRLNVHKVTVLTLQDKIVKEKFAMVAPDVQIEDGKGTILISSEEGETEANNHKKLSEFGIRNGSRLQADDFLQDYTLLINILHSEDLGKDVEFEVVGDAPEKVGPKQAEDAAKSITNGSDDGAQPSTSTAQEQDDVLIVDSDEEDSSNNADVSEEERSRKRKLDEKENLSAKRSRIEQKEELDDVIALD
# Chain of Cytochrome P450 2C19 (P33261 whole entry): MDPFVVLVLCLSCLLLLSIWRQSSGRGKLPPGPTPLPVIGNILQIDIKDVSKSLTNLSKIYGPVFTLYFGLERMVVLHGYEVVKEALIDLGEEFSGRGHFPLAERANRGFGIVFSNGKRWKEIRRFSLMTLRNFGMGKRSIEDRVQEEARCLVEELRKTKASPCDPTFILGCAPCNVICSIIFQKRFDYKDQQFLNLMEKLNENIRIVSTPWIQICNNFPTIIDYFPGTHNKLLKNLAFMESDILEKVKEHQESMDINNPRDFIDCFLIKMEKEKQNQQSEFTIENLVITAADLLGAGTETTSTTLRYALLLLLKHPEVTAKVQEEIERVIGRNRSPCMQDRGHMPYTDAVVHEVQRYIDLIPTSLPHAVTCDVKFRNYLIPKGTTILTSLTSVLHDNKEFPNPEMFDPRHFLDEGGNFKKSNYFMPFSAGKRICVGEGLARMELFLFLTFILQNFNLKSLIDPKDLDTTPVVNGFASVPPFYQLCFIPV
# Chain of Cytochrome P450 2D6 (P10635 whole entry): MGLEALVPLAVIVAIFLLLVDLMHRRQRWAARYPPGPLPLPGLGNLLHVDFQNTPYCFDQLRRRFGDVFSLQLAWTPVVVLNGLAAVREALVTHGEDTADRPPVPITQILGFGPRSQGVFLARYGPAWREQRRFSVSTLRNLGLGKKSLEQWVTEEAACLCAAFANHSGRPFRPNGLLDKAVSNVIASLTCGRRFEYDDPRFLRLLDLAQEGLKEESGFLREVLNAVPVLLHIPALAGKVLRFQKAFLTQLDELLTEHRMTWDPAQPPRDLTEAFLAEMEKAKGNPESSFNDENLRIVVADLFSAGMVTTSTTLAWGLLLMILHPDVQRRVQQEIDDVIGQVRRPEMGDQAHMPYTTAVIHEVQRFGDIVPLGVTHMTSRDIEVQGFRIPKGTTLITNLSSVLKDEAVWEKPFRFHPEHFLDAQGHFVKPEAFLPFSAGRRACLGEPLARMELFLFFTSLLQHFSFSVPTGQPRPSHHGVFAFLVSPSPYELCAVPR
# Chain of Albumin (P02769 whole entry): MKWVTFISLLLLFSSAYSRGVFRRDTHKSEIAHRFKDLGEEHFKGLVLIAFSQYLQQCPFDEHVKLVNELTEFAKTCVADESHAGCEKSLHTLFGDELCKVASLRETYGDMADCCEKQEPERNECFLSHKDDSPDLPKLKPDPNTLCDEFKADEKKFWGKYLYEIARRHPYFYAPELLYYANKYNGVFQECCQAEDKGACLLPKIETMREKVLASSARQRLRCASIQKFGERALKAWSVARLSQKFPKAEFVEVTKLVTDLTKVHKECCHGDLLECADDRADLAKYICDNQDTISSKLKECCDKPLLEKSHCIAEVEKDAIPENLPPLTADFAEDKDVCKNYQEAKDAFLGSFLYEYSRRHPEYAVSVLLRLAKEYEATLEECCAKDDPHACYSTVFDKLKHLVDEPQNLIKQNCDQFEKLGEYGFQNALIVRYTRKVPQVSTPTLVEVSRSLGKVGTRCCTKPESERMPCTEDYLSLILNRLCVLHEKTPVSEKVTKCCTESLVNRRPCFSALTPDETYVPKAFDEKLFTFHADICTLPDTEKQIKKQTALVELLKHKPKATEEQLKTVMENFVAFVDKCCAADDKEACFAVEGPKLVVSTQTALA
# Chain of Nonstructural protein 1 (Q194T2 whole entry): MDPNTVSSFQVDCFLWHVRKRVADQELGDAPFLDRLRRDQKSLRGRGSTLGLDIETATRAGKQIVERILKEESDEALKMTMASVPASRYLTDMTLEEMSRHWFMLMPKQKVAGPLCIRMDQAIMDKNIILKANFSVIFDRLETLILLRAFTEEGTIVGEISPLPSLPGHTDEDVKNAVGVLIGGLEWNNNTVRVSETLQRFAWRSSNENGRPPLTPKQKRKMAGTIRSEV
smiles,measurement,setting,value
CN(c1ccccc1)S(=O)(=O)c1ccc(C(=O)NCCc2ccccc2)cc1,IC50,[1],16 µM (not active)
same,IC50,[2],> 14.6 µM (not active)
COc1ccc(NS(=O)(=O)c2cccc(C(=O)NCC(c3ccc(F)cc3)N3CCOCC3)c2)cc1 (stereo not drawn),IC50,[1],23.6 µM (not active)
same,IC50,[2],> 43.8 µM (not active)
[2H]C(CCOS(N)(=O)=O)c1ccc(C(C)(C)C)cc1 (stereo not drawn),AC50,[3],0.487 µM (active)
CCOc1ccc(N(CC(=O)NCc2ccc(OC)cc2)S(=O)(=O)c2c(C)noc2C)cc1,AC50,Cytochrome P450 2C19,0.282 µM (inconclusive)
same,AC50,Cytochrome P450 2D6,inconclusive
O=C1NC(=O)N(Cc2ccco2)C(=O)/C1=C/NNC(=O)c1ccccc1O,EC50,Streptococcus,6.03 µM (active)
same,EC50,[4],16.9 µM (active)
same,EC50,[5],3 µM (active)
same,IC50,Aminopeptidase N,26.2 µM (active)
same,IC50,Nonstructural protein 1,42.3 µM (active)
same,IC50,Leucine aminopeptidase,50.3 µM (active)
same,EC50,[6],15.5 µM (active)
same,IC50,Albumin,> 94 µM (inactive)
same,IC50,SUMO-activating enzyme [7],15 µM (active)
same,IC50,SUMO-activating enzyme [8],2.29 µM (active)
C=CCNC(=S)Nc1sc2c(c1C(=O)OCC)CCN(C(=O)OCC)C2,IC50,[9],12.4 µM (active)
same,IC50,Bcl-2-related protein A1,> 20 µM (inactive)
same,IC50,[10],> 20 µM (inactive)
COC(=O)CNC(c1ccccc1)c1cc(C)ccc1NC(=O)CNC(=O)OCc1ccccc1 (stereo not drawn),AC50,[11],3.28 µM (active)
same,IC50,[1],20 µM (not active)
same,AC50,[12],6.15 µM (active)
same,AC50,[13],36.1 µM (active)
same,AC50,[14],6.89 µM (active)
same,IC50,[2],35.3 µM (not active)
O=C(CSc1ccc(Cl)cc1)NC1CCCC1,AC50,[3],14.2 µM (active)
C#CCOCCOCCOCCNc1nc(N2CCN(C(=O)[C@H](CCCCN)n3cc([C@@H](N)[C@H](C)CC)nn3)CC2)nc(N2CCN(C(=O)[C@H](CCCCN)n3cc([C@@H](N)CC(N)=O)nn3)CC2)n1,IC50,[9],10.3 µM (active)
same,IC50,Bcl-2-related protein A1,> 20 µM (inactive)
same,IC50,[10],16.6 µM (active)
Sc1nnc(-c2cccs2)n1/N=C/c1cn(-c2ccccc2)nc1-c1ccc(Cl)cc1,CC50,Vero,> 25 µM (active)
same,IC50,SUMO-activating enzyme [7],34.5 µM (active)
same,IC50,SUMO-activating enzyme [8],5.24 µM (active)
